Drawing on US7871999B2, “Substituted thiazoles and their use for producing drugs” (Gruenenthal GmbH, priority 2005, dated 2011), this text covers IC50 and inhibition for 42 compounds.

Counter-ions that a name gives are not always drawn.

One experiment deals with T1, mGluR5 receptor (Sus scrofa, UniProt I3LUI7).
T1 construct: pig brain hemispheres without medulla, cerebellum and pons ... differential centrifugation at 900×g and 40,000×g
T1 sequence (I3LUI7 1-1212): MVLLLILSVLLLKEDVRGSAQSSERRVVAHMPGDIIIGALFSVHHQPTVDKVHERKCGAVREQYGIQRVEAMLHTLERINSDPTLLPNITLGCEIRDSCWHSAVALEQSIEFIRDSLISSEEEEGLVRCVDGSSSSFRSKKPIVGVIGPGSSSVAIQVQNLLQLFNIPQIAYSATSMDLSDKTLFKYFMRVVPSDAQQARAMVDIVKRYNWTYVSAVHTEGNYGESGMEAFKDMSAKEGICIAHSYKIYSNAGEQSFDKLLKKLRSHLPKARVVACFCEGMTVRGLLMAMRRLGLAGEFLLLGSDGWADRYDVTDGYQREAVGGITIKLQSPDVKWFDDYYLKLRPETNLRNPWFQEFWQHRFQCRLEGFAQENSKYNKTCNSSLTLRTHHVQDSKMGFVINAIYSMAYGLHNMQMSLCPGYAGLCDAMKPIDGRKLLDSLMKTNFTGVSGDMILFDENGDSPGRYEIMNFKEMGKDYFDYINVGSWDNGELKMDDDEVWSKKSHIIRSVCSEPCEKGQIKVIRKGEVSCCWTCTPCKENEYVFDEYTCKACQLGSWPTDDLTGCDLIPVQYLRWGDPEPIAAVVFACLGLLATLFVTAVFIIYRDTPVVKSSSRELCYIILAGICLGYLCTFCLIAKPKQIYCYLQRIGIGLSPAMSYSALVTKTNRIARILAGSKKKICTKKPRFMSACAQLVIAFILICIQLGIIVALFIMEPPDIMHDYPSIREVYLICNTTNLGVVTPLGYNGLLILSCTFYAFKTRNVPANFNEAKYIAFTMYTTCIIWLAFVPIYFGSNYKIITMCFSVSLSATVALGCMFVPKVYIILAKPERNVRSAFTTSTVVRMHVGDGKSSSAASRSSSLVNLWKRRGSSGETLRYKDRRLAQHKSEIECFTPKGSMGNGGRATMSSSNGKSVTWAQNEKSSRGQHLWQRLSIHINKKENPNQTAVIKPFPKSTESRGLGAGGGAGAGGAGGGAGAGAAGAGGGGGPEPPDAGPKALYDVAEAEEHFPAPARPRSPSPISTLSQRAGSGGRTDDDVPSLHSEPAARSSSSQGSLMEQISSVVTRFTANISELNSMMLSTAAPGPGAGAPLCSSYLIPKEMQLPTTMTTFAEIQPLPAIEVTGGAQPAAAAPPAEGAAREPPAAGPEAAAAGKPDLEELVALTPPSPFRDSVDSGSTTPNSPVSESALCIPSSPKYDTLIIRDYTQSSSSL
As to the kind of experiment: Inhibition of [^3H]-MPEP binding in the mGluR5 receptor binding assay (pig brain homogenate). The settings on record: 5 nM [^3H]-MPEP. On the procedure: I. Method for Determining the Inhibition of [^3H]-MPEP Binding in the mGluR5 Receptor Binding Assay […]
The batches are then filtered with the assistance of a Brandel Cell Harvester (Brandel, Robotic 9600 model) on Unifilter plates with glass filter mats (Perkin Elmer, order number 6005177) and then washed 3 times with buffer (as above) using 250 μl per sample. The filter plates are then dried for 60 min at 55° C. Then 30 μl of Ultima Gold™ scintillating material (Packard BioScience, order number 6013159) is added per well and after 3 hours the samples are measured using the β counter (Microbeta, Perkin Elmer). Nonspecific binding is determined by the addition of 10 μM MPEP (Tocris, order number 1212).
Broadly, the IC50 is the point on the concentration scale where inhibition reaches its midpoint. Low readings indicate inhibition by little substance, high ones a need for much substance. `CN(C(=O)C#Cc1ccccc1)C1CCN(c2nccs2)C1` (stereo not drawn) [Example 2, N-methyl-3-phenyl-N-(1-(thiazol-2-yl)pyrrolidin-3-yl)propiolamide hydrochloride] registered a 50% inhibitory concentration (IC50) of 1320 nM.

`CN(c1nccs1)C1CCN(C(=O)C#Cc2ccccc2)C1` (stereo not drawn) [Example 22, 3-(Methyl(thiazol-2-yl)amino)-1-(3-phenylpropioloyl)pyrrolidine] showed a half-inhibitory concentration (IC50) of 350 nM.

Regarding `CN(CCNc1nccs1)C(=O)C#Cc1ccccc1` [Example 10, N-methyl-N-(2-(thiazol-2-yl)amino)ethyl-3-phenylpropiolamide], the concentration for half-maximal inhibition (IC50) amounted to 1860 nM.

With `Cc1cccc(C#CC(=O)NCCN(C)c2nccs2)c1` [Example 21, N-(2-(methyl(thiazol-2-yl)amino)ethyl)-3-(tol-3-yl)-propiolamide], the IC50 was 8.3 nM.

As for `COC(=O)c1cnc(N(C)CCNC(=O)C#Cc2cccc(Cl)c2)s1` [Example 34, methyl 2-((2-(3-(3-chlorophenyl)-propiolamido)ethyl)(methyl)amino)thiazole-5-carboxylate], the IC50 was determined as 20 nM.

Compound `O=C(C#Cc1ccccc1)N1CCCN(c2nccs2)CC1` [Example 3, 1-Thiazol-2-yl-4-(3-phenylpropioloyl)-1,4-diazepane] yielded a half-maximal inhibitory concentration (IC50) of 590 nM.

As for `CN(c1nccs1)C1CCCN(C(=O)C#Cc2ccccc2)C1` (stereo not drawn) [Example 28, 3-(methyl-(thiazol-2-yl)-amino)-1-(3-phenylpropioloyl)piperidine], the 50% inhibitory concentration (IC50) was 1150 nM.

Take `CN(C(=O)C#Cc1cccc(Cl)c1)C1CCCN(c2nccs2)C1` (stereo not drawn) [Example 36, 3-(3-Chlorophenyl)-N-methyl-N-(1-(thiazol-2-yl)piperidin-3-yl)propiolamide]: the IC50 turned out to be 22 nM.

On to `CN(CCNC(=O)C#Cc1cccc(Cl)c1)c1ncc(Cl)s1` [Example 38, 3-(3-chlorophenyl)-N-(2-((5-chlorothiazol-2-yl)(methyl)amino)ethyl)-propiolamide], for which the IC50 was determined as 160 nM.

In turn, `O=C(C#Cc1cccc(Cl)c1)NC1CN(c2nccs2)C1` [Example 39, 3-(3-chlorophenyl)-N-(1-(thiazol-2-yl)azetidin-3-yl)-propiolamide] returned a half-maximal inhibitory concentration (IC50) of 390 nM.

Consider `CCOC(=O)c1cnc(N(C)CCNC(=O)C#Cc2cccc(Cl)c2)s1` [Example 25, N-(2-(methyl-(5-ethoxycarbonylthiazol-2-yl)amino)ethyl)-3-(3-chlorophenyl)-propiolamide], for which the IC50 was 150 nM.

As to `CN(CCNC(=O)C#Cc1cccc(Cl)c1)c1nc(Cl)cs1` [Example 37, 3-(3-chlorophenyl)-N-(2-((4-chlorothiazol-2-yl)(methyl)amino)ethyl)propiolamide], the IC50 came out at 9.5 nM.

The compound `CN(C(=O)C#Cc1cccc(Cl)c1)C1CN(c2nccs2)C1` [Example 40, 3-(3-chlorophenyl)-N-methyl-N-(1-(thiazol-2-yl)azetidin-3-yl)-propiolamide] had an IC50 of 17 nM.

Compound `CN(c1ncc(F)s1)C1CCN(C(=O)C#Cc2cccc(Cl)c2)C1` (stereo not drawn) [Example 44, 1-(3-(3-Chlorophenyl)propioloyl)-3-(methyl(5-fluorothiazol-2-yl)amino)pyrrolidine] displayed a half-inhibitory concentration (IC50) of 71 nM.

`O=C(C#Cc1ccccc1)N1CCC(Nc2nccs2)C1` (stereo not drawn) [Example 11, 3-(Thiazol-2-yl-amino)-1-(3-phenylpropioloyl)pyrrolidine] registered an IC50 of 2180 nM.

On to `CN(c1ncc(F)s1)C1CN(C(=O)C#Cc2cccc(Cl)c2)C1` [Example 43, 1-(3-(3-Chlorophenyl)propioloyl)-3-(methyl(5-fluorothiazol-2-yl)amino)azetidine], for which the IC50 was 74 nM.

On to `CN(C(=O)C#Cc1ccccc1)C1CCCN(c2nccs2)C1` (stereo not drawn) [Example 16, N-methyl-N-(1-(thiazol-2-yl)piperidin-3-yl)-3-phenylpropiolamide], for which the IC50 was 140 nM.

For the compound `CN(CCNC(=O)C#Cc1cccc(Cl)c1)c1ncc(Br)s1` [Example 31, N-(2-((5-Bromothiazol-2-yl)(methyl)amino)ethyl)-3-(3-chlorophenyl)propiolamide], the concentration for half-maximal inhibition (IC50) came to 13 nM.

For the compound `Cc1csc(N(C)CCNC(=O)C#Cc2cccc(Cl)c2)n1` [Example 29, N-(2-(methyl-(4-methylthiazol-2-yl)amino)ethyl)-3-(3-chlorophenyl)-propiolamide], the half-inhibitory concentration (IC50) came out at 27 nM.

In the case of `O=C(C#Cc1ccccc1)NC1CN(c2nccs2)C1` [Example 8, 3-Phenyl-N-(1-(thiazol-2-yl)azetidin-3-yl)propiolamide], the half-inhibitory concentration (IC50) came to 10200 nM.

The same experiment, now with this note: 1 μM test compound, 5 nM [^3H]-MPEP.
The inhibition is the change of the read-out against control, counted positive when it falls. Read a high inhibition as a response far below the control. Take `Cc1cnc(N2CCC(NC(=O)C#Cc3cccc(Cl)c3)C2)s1` (stereo not drawn) [Example 112, 3-(3-chlorophenyl)-N-(1-(5-methylthiazol-2-yl)pyrrolidin-3-yl)propiolamide]: the inhibition at 1 µM turned out to be 24%.

The compound `Cc1csc(N2CCC(NC(=O)C#Cc3ccccc3)C2)n1` (stereo not drawn) [Example 45, N-(1-(4-methylthiazol-2-yl)pyrrolidin-3-yl)-3-phenylpropiolamide] had an inhibition at 1 µM of 59%.

Take `COc1ccc(C#CC(=O)NC2CCN(c3nc(C(C)(C)C)cs3)C2)cc1` (stereo not drawn) [Example 55, N-(1-(4-tert.-butylthiazol-2-yl)pyrrolidin-3-yl)-3-(4-methoxyphenyl)propiolamide]: at 1 µM the inhibition was 26%.

Turning to `CC(C)(C)c1csc(N2CCC(NC(=O)C#Cc3cccnc3)C2)n1` (stereo not drawn) [Example 123, N-(1-(4-tert.-butylthiazol-2-yl)pyrrolidin-3-yl)-3-(pyridin-3-yl)propiolamide], testing at 1 µM gave an inhibition of 20%.

With `Cc1nc(N2CCC(NC(=O)C#Cc3ccccc3)C2)sc1C` (stereo not drawn) [Example 51, N-(1-(4,5-dimethylthiazol-2-yl)pyrrolidin-3-yl)-3-phenylpropiolamide], testing at 1 µM gave an inhibition of 48%.

The compound `CC(C)(C)c1csc(N2CCC(NC(=O)C#Cc3ccccc3F)C2)n1` (stereo not drawn) [Example 61, N-(1-(4-tert.-butylthiazol-2-yl)pyrrolidin-3-yl)-3-(2-fluorophenyl)propiolamide] showed an inhibition at 1 µM of 28%.

The compound `Cc1cnc(N2CCC(NC(=O)C#Cc3cccc(F)c3)C2)s1` (stereo not drawn) [Example 81, 3-(3-fluorophenyl)-N-(1-(5-methylthiazol-2-yl)pyrrolidin-3-yl)propiolamide] returned an inhibition at 1 µM of 57%.

As to `Cc1cnc(N2CCC(NC(=O)C#Cc3ccccc3)C2)s1` (stereo not drawn) [Example 76, N-(1-(5-methylthiazol-2-yl)pyrrolidin-3-yl)-3-phenylpropiolamide], at 1 µM the inhibition was 56%.

In turn, `Cc1csc(N2CCC(NC(=O)C#Cc3cccc(F)c3)C2)n1` (stereo not drawn) [Example 67, 3-(3-fluorophenyl)-N-(1-(4-methylthiazol-2-yl)pyrrolidin-3-yl)propiolamide] registered an inhibition at 1 µM of 76%.

In turn, `Cc1cnc(N2CCC(NC(=O)C#Cc3cccc(C(F)(F)F)c3)C2)s1` (stereo not drawn) [Example 87, N-(1-(5-methylthiazol-2-yl)pyrrolidin-3-yl)-3-(3-(trifluoromethyl)phenyl)-propiolamide] registered an inhibition at 1 µM of 23%.

`CC(C)(C)c1csc(N2CCC(NC(=O)C#Cc3cccc(Cl)c3)C2)n1` (stereo not drawn) [Example 100, N-(1-(4-tert.-butylthiazol-2-yl)pyrrolidin-3-yl)-3-(3-chlorophenyl)propiolamide] registered an inhibition at 1 µM of 38%.

Compound `Cc1cnc(N2CCC(NC(=O)C#Cc3ccccc3F)C2)s1` (stereo not drawn) [Example 77, 3-(2-fluorophenyl)-N-(1-(5-methylthiazol-2-yl)pyrrolidin-3-yl)propiolamide] came in with an inhibition at 1 µM of 21%.

Consider `Cc1cccc(C#CC(=O)NC2CCN(c3nc(C)cs3)C2)c1` (stereo not drawn) [Example 72, N-(1-(4-methylthiazol-2-yl)pyrrolidin-3-yl)-3-m-tolylpropiolamide], for which the inhibition at 1 µM amounted to 87%.

The compound `CC(C)(C)c1csc(N2CCC(NC(=O)C#Cc3ccc(F)cc3)C2)n1` (stereo not drawn) [Example 57, N-(1-(4-tert.-butylthiazol-2-yl)pyrrolidin-3-yl)-3-(4-fluorophenyl)propiolamide] showed an inhibition at 1 µM of 26%.

For `Cc1cccc(C#CC(=O)NC2CCN(c3ncc(C)s3)C2)c1` (stereo not drawn) [Example 74, N-(1-(5-methylthiazol-2-yl)pyrrolidin-3-yl)-3-m-tolylpropiolamide], the inhibition at 1 µM came out at 89%.

Regarding `Cc1cccc(C#CC(=O)NC2CCN(c3nc(C)c(C)s3)C2)c1` (stereo not drawn) [Example 82, N-(1-(4,5-dimethylthiazol-2-yl)pyrrolidin-3-yl)-3-m-tolylpropiolamide], at 1 µM the inhibition was 81%.

Staying with this experiment, now noted: 10 μM test compound, 5 nM [^3H]-MPEP.
For the compound `O=C(C#Cc1ccccc1)NC1CCCCC1Nc1nccs1` (stereo not drawn) [Example 6, 3-phenyl-N-(2-(thiazol-2-ylamino)cyclohexyl)propiolamide], the inhibition at 10 µM amounted to 57%.

Turning to `O=C(C#Cc1ccccc1)N1CCCC(Nc2nccs2)C1` (stereo not drawn) [Example 27, 3-(thiazol-2-yl-amino)-1-(3-phenylpropioloyl)piperidine], at 10 µM the inhibition was 19%.

As to `Cc1csc(N2CCC(NC(=O)C#Cc3cccs3)C2)n1` (stereo not drawn) [Example 106, N-(1-(4-methylthiazol-2-yl)pyrrolidin-3-yl)-3-(thiophen-2-yl)propiolamide], the inhibition at 10 µM amounted to 38%.

Compound `Cc1cnc(N2CCC(NC(=O)C#Cc3ccccn3)C2)s1` (stereo not drawn) [Example 119, N-(1-(5-methylthiazol-2-yl)pyrrolidin-3-yl)-3-(pyridin-2-yl)propiolamide] showed an inhibition at 10 µM of 20%.

On to `CN(C(=O)C#Cc1ccccc1)C1CCCCC1N(C)c1nccs1` (stereo not drawn) [Example 12, N-Methyl-N-(2-(methyl(thiazol-2-yl)amino)cyclohexyl)-3-phenylpropiolamide], for which the inhibition at 10 µM was 41%.

Turning to `O=C(C#Cc1ccccc1)NC1CCN(c2nccs2)C1` (stereo not drawn) [Example 1, 3-Phenyl-N-(1-(thiazol-2-yl)pyrrolidin-3-yl)propiolamide], the inhibition at 10 µM was 66%.
